Target: bovine cardiac myofibrils (full-length cardiac myosin ATPase in the native sarcomere) (Bos taurus (Bovine), UniProt Q9BE39)
Assay: Skinned bovine cardiac myofibril ATPase assay (PK/LDH-coupled)
Assay type: biochemical
Conditions: Ca2+ activating to 75% of maximal rate; for CDMF75 IC15: concentration giving 15% inhibition; for IC50: read-out: CDMF75 IC50
In short: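 Inhibition of steady-state ATPase read at 340 nm through a PK/LDH-coupled NADH system (0.5 mM NADH, 1.5 mM PEP). Detergent-skinned bovine cardiac myofibrils, 1 mg/mL, were tested at pH 6.8 in PIPES/MgCl2 with 50 μM ATP and calcium adjusted to give pCa50 or pCa75 activation.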

Chain of bovine cardiac myofibrils (full-length cardiac myosin ATPase in the native sarcomere) (Q9BE39 whole entry): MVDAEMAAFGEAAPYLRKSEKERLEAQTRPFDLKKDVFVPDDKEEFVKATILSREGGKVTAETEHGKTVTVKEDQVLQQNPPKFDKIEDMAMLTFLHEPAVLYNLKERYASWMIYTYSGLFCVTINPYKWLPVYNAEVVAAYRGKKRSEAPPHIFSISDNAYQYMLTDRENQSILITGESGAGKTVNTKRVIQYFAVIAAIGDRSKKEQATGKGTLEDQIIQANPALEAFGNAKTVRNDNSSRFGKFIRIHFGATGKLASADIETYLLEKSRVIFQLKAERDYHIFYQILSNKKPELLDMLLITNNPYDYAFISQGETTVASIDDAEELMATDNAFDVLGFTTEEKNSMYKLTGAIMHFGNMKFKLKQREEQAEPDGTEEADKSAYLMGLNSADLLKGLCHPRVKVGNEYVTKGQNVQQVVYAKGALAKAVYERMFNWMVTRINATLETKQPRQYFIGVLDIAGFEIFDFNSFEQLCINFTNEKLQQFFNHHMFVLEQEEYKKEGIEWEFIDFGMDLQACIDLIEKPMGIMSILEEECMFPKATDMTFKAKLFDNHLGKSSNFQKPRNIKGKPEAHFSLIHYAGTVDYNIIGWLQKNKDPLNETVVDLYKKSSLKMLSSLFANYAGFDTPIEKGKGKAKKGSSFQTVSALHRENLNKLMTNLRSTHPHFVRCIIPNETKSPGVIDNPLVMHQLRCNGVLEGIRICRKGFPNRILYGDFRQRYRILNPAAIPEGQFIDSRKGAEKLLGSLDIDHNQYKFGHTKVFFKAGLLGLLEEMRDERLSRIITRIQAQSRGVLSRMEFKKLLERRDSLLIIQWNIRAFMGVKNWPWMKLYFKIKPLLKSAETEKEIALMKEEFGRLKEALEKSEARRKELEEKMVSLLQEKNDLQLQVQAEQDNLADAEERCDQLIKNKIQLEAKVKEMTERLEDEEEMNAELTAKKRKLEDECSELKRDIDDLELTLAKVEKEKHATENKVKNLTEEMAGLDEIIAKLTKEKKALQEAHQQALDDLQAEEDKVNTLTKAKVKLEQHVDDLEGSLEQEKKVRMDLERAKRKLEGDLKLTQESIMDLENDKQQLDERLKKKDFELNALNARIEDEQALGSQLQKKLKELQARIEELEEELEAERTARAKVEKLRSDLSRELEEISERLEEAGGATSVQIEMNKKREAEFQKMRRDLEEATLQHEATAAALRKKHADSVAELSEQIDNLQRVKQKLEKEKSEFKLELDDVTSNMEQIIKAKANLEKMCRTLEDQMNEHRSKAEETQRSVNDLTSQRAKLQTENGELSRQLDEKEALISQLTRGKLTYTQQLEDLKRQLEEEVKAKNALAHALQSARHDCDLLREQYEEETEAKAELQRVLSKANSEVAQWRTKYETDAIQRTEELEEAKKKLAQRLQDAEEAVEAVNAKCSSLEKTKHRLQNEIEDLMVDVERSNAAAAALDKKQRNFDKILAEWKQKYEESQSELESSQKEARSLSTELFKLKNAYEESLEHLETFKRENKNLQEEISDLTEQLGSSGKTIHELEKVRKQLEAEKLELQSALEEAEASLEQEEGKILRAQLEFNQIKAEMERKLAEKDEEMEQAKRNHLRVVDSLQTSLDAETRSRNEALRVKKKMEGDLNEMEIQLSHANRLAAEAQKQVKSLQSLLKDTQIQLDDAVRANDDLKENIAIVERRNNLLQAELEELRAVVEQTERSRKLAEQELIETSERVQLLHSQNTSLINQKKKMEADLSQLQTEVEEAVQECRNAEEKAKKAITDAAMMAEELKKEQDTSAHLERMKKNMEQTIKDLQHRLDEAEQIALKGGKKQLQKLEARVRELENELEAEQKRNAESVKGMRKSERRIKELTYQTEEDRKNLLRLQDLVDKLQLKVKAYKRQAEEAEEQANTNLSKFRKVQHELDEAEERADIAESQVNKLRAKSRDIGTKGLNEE
Chain of bovine cardiac myofibrils (full-length cardiac myosin ATPase in the native sarcomere) (P85100 whole entry partner): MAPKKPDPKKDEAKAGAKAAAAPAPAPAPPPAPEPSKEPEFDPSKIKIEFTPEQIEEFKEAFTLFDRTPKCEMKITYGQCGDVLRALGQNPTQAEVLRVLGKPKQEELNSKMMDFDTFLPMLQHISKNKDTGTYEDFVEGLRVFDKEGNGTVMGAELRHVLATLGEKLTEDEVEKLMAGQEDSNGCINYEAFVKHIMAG
Chain of bovine cardiac myofibrils (full-length cardiac myosin ATPase in the native sarcomere) (Q3SZE5 whole entry partner): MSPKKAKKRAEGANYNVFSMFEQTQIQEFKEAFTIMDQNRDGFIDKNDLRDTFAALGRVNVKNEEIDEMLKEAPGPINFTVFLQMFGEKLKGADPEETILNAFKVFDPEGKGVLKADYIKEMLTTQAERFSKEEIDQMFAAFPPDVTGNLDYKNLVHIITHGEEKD

Compound	CDMF75 IC15	IC50
Cn1cnnc1C(=O)N[C@@H]1CCc2cc(-c3noc(C(F)F)n3)ccc21 [Compound 165, (R)-N-(5-(5-(difluoromethyl)-1,2,4-oxadiazol-3-yl)-2,3-dihydro-1H-inden-1-yl)-4-methyl-4H-1,2,4-triazole-3-carboxamide]	4.6 µM	23.5 µM
Cc1cc(C(=O)N[C@@H]2CCc3cc(-c4ncc(C)o4)ccc32)ccn1 [Compound 139, (R)-2-methyl-N-(5-(5-methyloxazol-2-yl)-2,3-dihydro-1H-inden-1-yl)isonicotinamide]	3.6 µM	17.3 µM
COC(=O)N[C@@H]1CCc2cc(-c3noc(C4CC4)n3)ccc21 [Compound 305, methyl (R)-(5-(5-cyclopropyl-1,2,4-oxadiazol-3-yl)-2,3-dihydro-1H-inden-1-yl)carbamate]	0.3 µM	1.2 µM
Cc1nc(-c2ccc3c(c2)CCC3NC(=O)Nc2ncccn2)no1 (stereo not drawn) [Compound 110, 1-(5-(5-methyl-1,2,4-oxadiazol-3-yl)-2,3-dihydro-1H-inden-1-yl)-3-(pyrimidin-2-yl)urea]	39.2 µM	> 39.2 µM
O=C(N[C@@H]1CCc2cc(-c3noc(C4CCC4)n3)ccc21)C(F)F [Compound 440, (R)-N-(5-(5-cyclobutyl-1,2,4-oxadiazol-3-yl)-2,3-dihydro-1H-inden-1-yl)-2,2-difluoroacetamide]	2.7 µM	10.7 µM
CC(=O)N[C@@H]1COc2cc(-c3noc(C)n3)ccc21 [Compound 450, (S)-N-(6-(5-methyl-1,2,4-oxadiazol-3-yl)-2,3-dihydrobenzofuran-3-yl)acetamide]	3.2 µM	12.4 µM
Nc1cc(C(=O)NC2CCc3cc(-c4noc(C(F)F)n4)ccc32)ccn1 (stereo not drawn) [Compound 99, 2-amino-N-(5-(5-(difluoromethyl)-1,2,4-oxadiazol-3-yl)-2,3-dihydro-1H-inden-1-yl)isonicotinamide]	0.6 µM	2.6 µM
Cc1cnoc1C(=O)N[C@@H]1CCc2cc(-c3noc(C4COC4)n3)ccc21 [Compound 117, (R)-4-methyl-N-(5-(5-(oxetan-3-yl)-1,2,4-oxadiazol-3-yl)-2,3-dihydro-1H-inden-1-yl)isoxazole-5-carboxamide]	1.9 µM	10.1 µM
CCc1nc(-c2ccc3c(c2)CC[C@H]3NC(=O)c2coc(C)n2)no1 [Compound 561, (R)-N-(5-(5-ethyl-1,2,4-oxadiazol-3-yl)-2,3-dihydro-1H-inden-1-yl)-2-methyloxazole-4-carboxamide]	1.4 µM	7 µM
O=C(Nc1ccccc1)NC1CCc2cc(-c3noc(C(F)F)n3)ccc21 (stereo not drawn) [Compound 13, 1-(5-(5-(difluoromethyl)-1,2,4-oxadiazol-3-yl)-2,3-dihydro-1H-inden-1-yl)-3-phenylurea]	0.5 µM	22.1 µM
COCc1nc(-c2ccc3c(c2)CC[C@H]3NC(=O)c2cn(CCO)nc2C)no1 [Compound 695, (R)-1-(2-hydroxyethyl)-N-(5-(5-(methoxymethyl)-1,2,4-oxadiazol-3-yl)-2,3-dihydro-1H-inden-1-yl)-3-methyl-1H-pyrazole-4-carboxamide]	2.1 µM	7.8 µM
Cc1nccnc1C(=O)NC1CCc2cc(-c3noc(C(F)F)n3)ccc21 (stereo not drawn) [Compound 38, N-(5-(5-(difluoromethyl)-1,2,4-oxadiazol-3-yl)-2,3-dihydro-1H-inden-1-yl)-3-methylpyrazine-2-carboxamide]	2.2 µM	9.5 µM
[2H]C([2H])([2H])c1nc(-c2ccc3c(c2)OC[C@H]3NC(=O)c2cnc(C)o2)no1 [Compound 267, (S)-2-methyl-N-(6-(5-(methyl-d3)-1,2,4-oxadiazol-3-yl)-2,3-dihydrobenzofuran-3-yl)oxazole-5-carboxamide]	1.2 µM	4.4 µM
CCc1nc(-c2ccc3c(c2)CC[C@H]3NC(=O)c2cnn(C(C)C(=O)O)c2)no1 (stereo partly drawn) [Compound 531, 2-(4-(((R)-5-(5-ethyl-1,2,4-oxadiazol-3-yl)-2,3-dihydro-1H-inden-1-yl)carbamoyl)-1H-pyrazol-1-yl)propanoic acid]	4.1 µM	25.1 µM
O=C(N[C@@H]1CCc2cc(-c3noc(C4CC4)n3)ccc21)OCC(F)F [Compound 334, 2,2-difluoroethyl (R)-(5-(5-cyclopropyl-1,2,4-oxadiazol-3-yl)-2,3-dihydro-1H-inden-1-yl)carbamate]	0.6 µM	1.9 µM
CCc1nc(-c2ccc3c(c2)CC[C@H]3NC(=O)c2ccc(=O)n(CCO)c2)no1 [Compound 605, (R)-N-(5-(5-ethyl-1,2,4-oxadiazol-3-yl)-2,3-dihydro-1H-inden-1-yl)-1-(2-hydroxyethyl)-6-oxo-1,6-dihydropyridine-3-carboxamide]	0.8 µM	3.4 µM
COCCCn1cc(C(=O)N[C@@H]2CCc3cc(-c4noc(C5CC5)n4)ccc32)cn1 [Compound 600, (R)-N-(5-(5-cyclopropyl-1,2,4-oxadiazol-3-yl)-2,3-dihydro-1H-inden-1-yl)-1-(3-methoxypropyl)-1H-pyrazole-4-carboxamide]	3.5 µM	16.5 µM
CCc1nc(-c2ccc3c(c2)CC[C@H]3NC(=O)c2cn(C)nc2C)no1 [Compound 563, (R)-N-(5-(5-ethyl-1,2,4-oxadiazol-3-yl)-2,3-dihydro-1H-inden-1-yl)-1,3-dimethyl-1H-pyrazole-4-carboxamide]	0.4 µM	1.2 µM
Cc1cc(C(=O)NC2CCc3cc(-c4nc(C)co4)ccc32)ccn1 (stereo not drawn) [Compound 173, 2-methyl-N-(5-(4-methyloxazol-2-yl)-2,3-dihydro-1H-inden-1-yl)isonicotinamide]	39.2 µM	> 39.2 µM
CCc1nc(-c2ccc3c(c2)CC[C@H]3NC(=O)[C@H]2CCNC(=O)C2)no1 [Compound 355, (S)-N-((R)-5-(5-ethyl-1,2,4-oxadiazol-3-yl)-2,3-dihydro-1H-inden-1-yl)-2-oxopiperidine-4-carboxamide]	2.9 µM	10.9 µM
CCc1nc(-c2ccc3c(c2)CC[C@H]3NC(=O)c2cnn(C3CN(C(=O)NC)C3)c2)no1 [Compound 479, (R)-N-(5-(5-ethyl-1,2,4-oxadiazol-3-yl)-2,3-dihydro-1H-inden-1-yl)-1-(1-(methylcarbamoyl)azetidin-3-yl)-1H-pyrazole-4-carboxamide]	4.5 µM	23.1 µM
Cc1oncc1C(=O)N[C@@H]1CCc2cc(-c3noc(C(F)F)n3)ccc21 [Compound 72, (R)-N-(5-(5-(difluoromethyl)-1,2,4-oxadiazol-3-yl)-2,3-dihydro-1H-inden-1-yl)-5-methylisoxazole-4-carboxamide]	0.3 µM	1 µM
Cc1cc(-c2ccc3c(c2)CC[C@H]3NC(=O)c2cnn(C)c2)no1 [Compound 402, (R)-1-methyl-N-(5-(5-methylisoxazol-3-yl)-2,3-dihydro-1H-inden-1-yl)-1H-pyrazole-4-carboxamide]	1 µM	3.8 µM
Cc1nc(-c2ccc3c(c2)OC[C@H]3NC(=O)c2nnn(C)n2)no1 [Compound 200, (S)-2-methyl-N-(6-(5-methyl-1,2,4-oxadiazol-3-yl)-2,3-dihydrobenzofuran-3-yl)-2H-tetrazole-5-carboxamide]	2.6 µM	11.3 µM
